# Source: ChEMBL document CHEMBL5625196, “Cell-active, irreversible covalent inhibitors that selectively target the catalytic lysine of EGFR by using fluorosulfate-based SuFEx chemistry” (Eur J Med Chem, 2023)
# Legend:
# [1] = physchem; settings: PBS
# [2] = physchem; settings: cell-culture medium
# [3] = in vitro; settings: dog, MDCK-MDR1
# [4] = in vitro; settings: dog, MDCK-MDR1; remark: listed apart in the source
# [5] = in vitro; settings: dog, MDCK-MDR1; remark: listed apart in the source
# [6] = dog, mdck-mdr1, 10 µM
# [7] = in vitro; settings: dog, MDCK-MDR1; remark: listed apart in the source
# [8] = MRT in Sprague-Dawley rat at 5 mg/kg, po measured after 24 hrs by LC-MS/MS analysis; format: ADME, organism-based; settings: in vivo
# [9] = Half-life in Sprague-Dawley rat at 5 mg/kg, po measured after 24 hrs by LC-MS/MS analysis; format: ADME, organism-based; settings: in vivo
# [10] = physchem; settings: PBS; remark: listed apart in the source
# [11] = Cmax in Sprague-Dawley rat at 5 mg/kg, po measured after 24 hrs by LC-MS/MS analysis; format: ADME, organism-based; settings: in vivo
# [12] = Clearance in Sprague-Dawley rat at 2 mg/kg, iv measured after 24 hrs by LC-MS/MS analysis; format: ADME, organism-based; settings: in vivo
# [13] = AUC (0 to infinity) in Sprague-Dawley rat at 5 mg/kg, po measured after 24 hrs by LC-MS/MS analysis; format: ADME, organism-based; settings: in vivo
# [14] = Half-life in Sprague-Dawley rat at 2 mg/kg, iv measured after 24 hrs by LC-MS/MS analysis; format: ADME, organism-based; settings: in vivo
# [15] = Tmax in Sprague-Dawley rat at 5 mg/kg, po measured after 24 hrs by LC-MS/MS analysis; format: ADME, organism-based; settings: in vivo
# [16] = AUC (0 to infinity) in Sprague-Dawley rat at 2 mg/kg, iv measured after 24 hrs by LC-MS/MS analysis; format: ADME, organism-based; settings: in vivo
# [17] = Apparent volume of distribution in Sprague-Dawley rat at 2 mg/kg, iv measured after 24 hrs by LC-MS/MS analysis; format: ADME, organism-based; settings: in vivo, read-out: Vz
# [18] = Oral bioavailability in Sprague-Dawley rat at 5 mg/kg measured after 24 hrs by LC-MS/MS analysis; format: ADME, organism-based; settings: in vivo
# [19] = Volume of distribution at steady state in Sprague-Dawley rat at 2 mg/kg, iv measured after 24 hrs by LC-MS/MS analysis; format: ADME, organism-based; settings: in vivo, read-out: Vdss
# [20] = AUC (0 to t) in Sprague-Dawley rat at 2 mg/kg, iv measured after 24 hrs by LC-MS/MS analysis; format: ADME, organism-based; settings: in vivo
# [21] = MRT in Sprague-Dawley rat at 2 mg/kg, iv measured after 24 hrs by LC-MS/MS analysis; format: ADME, organism-based; settings: in vivo
# [22] = AUC (0 to t) in Sprague-Dawley rat at 5 mg/kg, po measured after 24 hrs by LC-MS/MS analysis; format: ADME, organism-based; settings: in vivo
# [23] = physchem; settings: PBS; remark: listed apart in the source
# [24] = in vitro; settings: mouse, mouse liver microsomes
structure (smiles),measurement,setting,value
C=CS(=O)(=O)Nc1cccc(Nc2ncnc3cc(OCCOC)c(OCCOC)cc23)c1,half-life,[1],> 24 h
same,half-life,[2],> 24 h
C[C@H]1O[C@@H](O[C@H]2[C@@H](O)C[C@H](O[C@H]3[C@@H](O)C[C@H](O[C@H]4CC[C@@]5(C)[C@H](CC[C@@H]6[C@@H]5C[C@@H](O)[C@]5(C)[C@@H](C7=CC(=O)OC7)CC[C@]65O)C4)O[C@@H]3C)O[C@@H]2C)C[C@H](O)[C@@H]1O [DIGOXIN],Papp B→A at 10 µM,[3],18.5 ×10⁻⁶ cm/s
same,recovery at 10 µM,[4],105%
same,recovery at 10 µM,[5],97.9%
same,Papp,[6],6.41 10^-6 cm/s
COCCOc1cc2ncnc(Nc3cccc(OS(=O)(=O)F)c3)c2cc1OCCOC,Papp B→A at 10 µM,[3],3.92 ×10⁻⁶ cm/s
same,Papp A→B at 10 µM,[7],1.9 ×10⁻⁶ cm/s
same,MRT,[8],2.48 h
same,half-life,[9],0.81 h
same,recovery at 10 µM,[4],86.8%
same,half-life,[10],> 12 h
same,Cmax,[11],444 ng/mL
same,clearance,[12],17.4 mL/min/kg
same,AUC(0-inf),[13],1540 ng·h/mL
same,half-life,[14],0.93 h
same,recovery at 10 µM,[5],81.2%
same,Tmax,[15],2.33 h
same,half-life,[1],> 8 h
same,AUC(0-inf),[16],1920 ng·h/mL
same,Vd,[17],1.4 L/kg
same,bioavailability,[18],32%
same,Vd,[19],1.22 L/kg
same,AUC(0-t) at 24 h,[20],1920 ng·h/mL
same,MRT,[21],1.16 h
same,half-life,[2],24 h
same,AUC(0-t) at 24 h,[22],1530 ng·h/mL
same,half-life,[23],> 8 h
same,half-life at 1 h,[24],0.493 h
